From US10226453B2, “3-(1H-indol-2-yl)-1H-pyrazolo[4,3-B]pyridines and therapeutic uses thereof” (Samumed, LLC, priority 2015, dated 2019)

Tested on: IL-6 (THP-1 cells)
Test: IL-6 inhibition in LPS-stimulated THP-1 human monocyte cells (HTRF)
Type: cell-based
Conditions: LPS 500 ng/mL; for EC50: 22 hours, IL6 HTRF; for inhibition at 10 µM: given where EC50 >10 μM, read-out: percent inhibition at 10 μM
Method in brief: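 Readout is the 665/620 nm HTRF ratio for secreted IL-6, normalized to DMSO wells, with EC50 from a variable-slope four-parameter fit, or % inhibition at 10 μM when above 10 μM. Cells (1% FBS, 24 h beforehand) got compound for 2 h, then LPS 500 ng/mL for 22 h at 37° C; top dose 10 μM, 0.1% DMSO.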

Structure (SMILES) | EC50 | inhibition at 10 µM
O=C(CC1CCNCC1)Nc1cncc(-c2ccc3[nH]nc(-c4cc5c(-c6ccccn6)cccc5[nH]4)c3n2)c1 [Compound 621, 2-(Piperidin-4-yl)-N-(5-(3-(4-(pyridin-2-yl)-1H-indol-2-yl)-1H-pyrazolo[4,3-b]pyridin-5-yl)pyridin-3-yl)acetamide] | 52 nM | –
c1cc(N2CCCCC2)c2cc(-c3n[nH]c4ccc(-c5cncc(OC6CCNCC6)c5)nc34)[nH]c2c1 [Compound 636, 3-(4-(Piperidin-1-yl)-1H-indol-2-yl)-5-(5-(piperidin-4-yloxy)pyridin-3-yl)-1H-pyrazolo[4,3-b]pyridine] | 1980 nM | –
c1cc(-c2ccoc2)c2cc(-c3n[nH]c4ccc(-c5cn[nH]c5)nc34)[nH]c2c1 [Compound 711, 3-(4-(Furan-3-yl)-1H-indol-2-yl)-5-(1H-pyrazol-4-yl)-1H-pyrazolo[4,3-b] pyridine] | 72 nM | –

Continued, in another order:

EC50 | Structure (SMILES) | inhibition at 10 µM
> 10000 nM | c1cc(-c2ccoc2)c2cc(-c3n[nH]c4ccc(-c5cncc(OC6CCCCC6)c5)nc34)[nH]c2c1 [Compound 715, 5-(5-(Cyclohexyloxy)pyridin-3-yl)-3-(4-(furan-3-yl)-1H-indol-2-yl)-1H-pyrazolo[4,3-b]pyridine] | 36.2%
347 nM | Oc1cncc(-c2ccc3[nH]nc(-c4cc5c(-c6cccs6)cccc5[nH]4)c3n2)c1 [Compound 737, 5-(3-(4-(Thiophen-2-yl)-1H-indol-2-yl)-1H-pyrazolo[4,3-b]pyridin-5-yl) pyridin-3-ol] | –
> 10000 nM | c1cnc2cc(-c3n[nH]c4ccc(-c5cn[nH]c5)nc34)[nH]c2c1 [Compound 1021, 5-(1H-Pyrazol-4-yl)-3-(1H-pyrrolo[3,2-b]pyridin-2-yl)-1H-pyrazolo[4,3-b] pyridine] | 0%
91 nM | Oc1cncc(-c2ccc3[nH]nc(-c4cc5ncccc5[nH]4)c3n2)c1 [Compound 1031, 5-(3-(1H-Pyrrolo[3,2-b]pyridin-2-yl)-1H-pyrazolo[4,3-b]pyridin-5-yl) pyridin-3-ol] | –
